Results as given in PMC3629977 (Journal of nuclear medicine : official publication, Society …, 2010).
Bridge positions count the residues as written; N and C are the ends. Square brackets hold non-standard residues; d marks the D form. Peptide text beside a SMILES is read from it. * marks the point of attachment. 2Nal = N[C@@H](Cc1ccc2ccccc2c1)C(=O)O; Benzoyl(4-F) = O=C(c1ccc(F)cc1)*; Cit = NC(=O)NCCC[C@H](N)C(=O)O

Tests used:
CXCR4 = settings: cited from earlier work
[1] = test system: stem cells from the bone marrow; settings: compared with AMD3100/plerixafor; cited from earlier work
CHO-CXCR4 tumors [2] = settings: 4-^18F-T140 alone, mice bearing CHO and CHO-CXCR4 tumors; Fig. 5A: 2 h after injection, 50 μCi
CHO-CXCR4 tumors [3] = settings: in vivo
red blood cells = settings: mouse, in vivo
[4] = female, athymic nude, mouse, iv, 3 h

Row | tumor-to-blood ratio (CHO-CXCR4) (CHO-CXCR4 tumors [3]; [4]) | tumor-to-muscle ratio (CHO-CXCR4) (CHO-CXCR4 tumors [3]; [4]) | difference of uptake between CHO-CXCR4 and CXCR4-negative CHO tumors (CHO-CXCR4 tumors [3]) | SMILES | CXCR4 antagonist selectivity (CXCR4) | in vivo mobilization of stem cells from the bone marrow [1] | PET visualization of tumors (CHO-CXCR4 tumors [2]) | binding to red blood cells (red blood cells)
1 | – | – | – | N=C(N)NCCC[C@H](NC(=O)[C@@H]1CSSC[C@H](NC(=O)[C@H](Cc2ccc3ccccc3c2)NC(=O)[C@H](CCCNC(=N)N)NC(=O)[C@H](CCCNC(=N)N)NC(=O)c2ccc(F)cc2)C(=O)N[C@@H](Cc2ccc(O)cc2)C(=O)N[C@@H](CCCNC(N)=O)C(=O)N[C@@H](CCCCN)C(=O)N[C@H](CCCCN)C(=O)N2CCC[C@H]2C(=O)N[C@@H](Cc2ccc(O)cc2)C(=O)N[C@@H](CCCNC(=N)N)C(=O)N[C@@H](CCCNC(N)=O)C(=O)N1)C(N)=O [4-F-T140, 4-F-benzoyl-TN14003] ({Benzoyl(4-F)}-RR[2Nal]CY[Cit]K[dK]PYR[Cit]CR-NH2; disulfide 4-13) | highly selective CXCR4 antagonist | increased in vivo mobilization of stem cells from the bone marrow | – | –
2 | 0.19 ± 0.04 | 2.94 ± 0.16 | not statistically significant | N=C(N)NCCC[C@H](NC(=O)[C@@H]1CSSC[C@H](NC(=O)[C@H](Cc2ccc3ccccc3c2)NC(=O)[C@H](CCCNC(=N)N)NC(=O)[C@H](CCCNC(=N)N)NC(=O)c2ccc(F)cc2)C(=O)N[C@@H](Cc2ccc(O)cc2)C(=O)N[C@@H](CCCNC(N)=O)C(=O)N[C@@H](CCCCN)C(=O)N[C@H](CCCCN)C(=O)N2CCC[C@H]2C(=O)N[C@@H](Cc2ccc(O)cc2)C(=O)N[C@@H](CCCNC(=N)N)C(=O)N[C@@H](CCCNC(N)=O)C(=O)N1)C(N)=O [4-^18F-T140, 4-^18F-benzoyl-TN14003] ({Benzoyl(4-F)}-RR[2Nal]CY[Cit]K[dK]PYR[Cit]CR-NH2; disulfide 4-13) | – | – | clearly showed both tumors | bind specifically to red blood cells in vitro and in vivo
